Consider 39 molecules from patent publication US11478478B2, “2,3-disubstituted 1-acyl-4-amino-1,2,3,4-tetrahydroquinoline derivatives and their use as bromodomain inhibitors” (GLAXOSMITHKLINE INTELLECTUAL PROPERTY (NO.2) LIMITED, priority 2013, dated 2022).

This assay deals with T1, BRD4 BD2 (Homo sapiens, UniProt O60885, Y97A).
T1 construct: BRD4 (1-477) (Y97A) and (Y390A); made in house; host or cells: E. coli (pET15b vector)
Description: TR-FRET binding assay, BRD4 BD2 (BD1-mutated protein). Particulars: read-out: pIC50 in the BRD4 BD2 assay (converted). Summed up:
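Displacement of Alexa Fluor647-labelled bromodomain ligand (at Kd) from 10 nM His-tagged BRD4 (1-477, Y97A) read by Eu-anti-His TR-FRET (665/615 ratio) in pH 7.4 HEPES buffer, 0.5% DMSO. Compound preincubated 30 min at rt, detection ≥30 min. pIC50 derived from four-parameter fit after normalisation to controls.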
(In general: TR-FRET usually uses a lanthanide donor and a delayed reading to cut background.)
Turning to `CCNC(=O)c1ccc2c(c1)[C@H](Nc1cccc(C)n1)[C@@H](C)[C@H](CC)N2C(C)=O` (racemic) [Example 279, rac-(2S,3R,4R)-1-acetyl-N,2-diethyl-3-methyl-4-((6-methylpyridin-2-yl)amino)-1,2,3,4-tetrahydroquinoline-6-carboxamide], the IC50 is 100 nM.
In the case of `CC[C@H]1[C@H](C)[C@@H](Nc2cccc(C)n2)c2cc(C(=O)NCCC#N)ccc2N1C(C)=O` (racemic) [Example 283, rac-(2S,3R,4R)-1-acetyl-N-(2-cyanoethyl)-2-ethyl-3-methyl-4-((6-methylpyridin-2-yl)amino)-1,2,3,4-tetrahydroquinoline-6-carboxamide], the IC50 is 100 nM.
For `CC[C@H]1[C@H](C)[C@@H](Nc2cccc(C)n2)c2cc(C(=O)NC(C)C)ccc2N1C(C)=O` (racemic) [Example 285, rac-(2S,3R,4R)-1-acetyl-2-ethyl-N-isopropyl-3-methyl-4-((6-methylpyridin-2-yl)amino)-1,2,3,4-tetrahydroquinoline-6-carboxamide], the IC50 is 100 nM.
For `CC(=O)OC[C@@H]1[C@@H](Nc2ccccc2)c2ccccc2N(C(C)=O)[C@H]1C1CC1` (racemic) [Example 591, rac-((2S,3R,4R)-1-acetyl-2-cyclopropyl-4-(phenylamino)-1,2,3,4-tetrahydroquinolin-3-yl)methyl acetate], the IC50 is 1000 to 100000 nM.
Under `CC(=O)N1c2ccccc2[C@H](Nc2ccccc2)[C@@H](CO)[C@@H]1C1CC1` (racemic) [Example 592, rac-1-((2S,3R,4R)-2-cyclopropyl-3-(hydroxymethyl)-4-(phenylamino)-3,4-dihydroquinolin-1(2H)-yl)ethanone] stands 1000 to 100000 nM; under `COc1cc2c(cc1C(N)=O)[C@H](Nc1nccc(C)n1)[C@@H](C)[C@H](C1CC1)N2C(C)=O` (racemic) [Example 593, rac-(2S,3R,4R)-1-acetyl-2-cyclopropyl-7-methoxy-3-methyl-4-((4-methylpyrimidin-2-yl)amino)-1,2,3,4-tetrahydroquinoline-6-carboxamide], 1000 to 100000 nM; under `CC(=O)N1c2ccncc2C(Nc2nccc(C)n2)C(C)C1C1CC1` (racemic) [Example 598b, rac-1-((2,3,4 unknown)-2-cyclopropyl-3-methyl-4-((4-methylpyrimidin-2-yl)amino)-3,4-dihydro-1,6-naphthyridin-1(2H)-yl)ethanone], 1000 to 100000 nM.
As for `CC[C@H]1[C@H](C)[C@@H](Nc2cccc(C)n2)c2ccccc2N1C(C)=O` (single isomer, unassigned) [Example 25a], the figure is 100 nM.
In the case of `CC[C@@H]1[C@@H](C)[C@H](Nc2cccc(C)n2)c2ccccc2N1C(C)=O` (single isomer, unassigned) [Example 25b], the IC50 is 1000 to 100000 nM.
Under `CC(=O)N1c2ccccc2[C@H](Nc2ccccc2)[C@@H](C)[C@@H]1C1CC1` (single isomer, unassigned) [Example 27a] stands 100 nM; under `CC(=O)N1c2ccccc2[C@@H](Nc2ccccc2)[C@H](C)[C@H]1C1CC1` (single isomer, unassigned) [Example 27b], 1000 to 100000 nM; under `CC(=O)N1c2ccccc2[C@H](Nc2cccc(C)n2)[C@@H](C)[C@@H]1C1CC1` (single isomer, unassigned) [Example 29a], 100 nM.
Under `CC(=O)N1c2ccccc2[C@@H](Nc2cccc(C)n2)[C@H](C)[C@H]1C1CC1` (single isomer, unassigned) [Example 29b] stands 1000 to 100000 nM; under `CC(=O)N1c2ccc(N3CCOCC3)cc2[C@H](Nc2ccccc2)[C@@H](C)[C@@H]1C` (single isomer, unassigned) [Example 71a], 1000 to 100000 nM; under `CC(=O)N1c2ccc(N3CCOCC3)cc2[C@@H](Nc2ccccc2)[C@H](C)[C@H]1C` (single isomer, unassigned) [Example 71b], 100 nM.
`CC(=O)N1c2ccc(N3CCOCC3)cc2[C@@H](Nc2ccccc2)[C@H](C)[C@H]1C1CC1` (single isomer, unassigned) [Example 91b]: the IC50 was 1000 to 100000 nM.
Under `CC(=O)N1c2cccnc2[C@H](Nc2ccccc2)[C@@H](C)[C@@H]1C1CC1` (single isomer, unassigned) [Example 102b] stands 1000 to 100000 nM; under `CC(=O)N1c2cccnc2[C@@H](Nc2cccc(C)n2)[C@H](C)[C@H]1C1CC1` (single isomer, unassigned) [Example 114b], 1000 to 100000 nM.
Take `COCCn1cc(-c2ccc3c(c2)[C@H](Nc2cccc(C)n2)[C@@H](C)[C@H](C2CC2)N3C(C)=O)cn1` (single isomer, unassigned) [Example 136a]: the IC50 was 100 nM.
On to `COCCn1cc(-c2ccc3c(c2)[C@H](Nc2cnc(C)cn2)[C@@H](C)[C@H](C2CC2)N3C(C)=O)cn1` (single isomer, unassigned) [Example 138a], for which the IC50 was 100 nM.
Take `COCCn1cc(-c2ccc3c(c2)[C@@H](Nc2cnc(C)cn2)[C@H](C)[C@@H](C2CC2)N3C(C)=O)cn1` (single isomer, unassigned) [Example 138b]: the IC50 was 1000 to 100000 nM.
Under `CC[C@H]1[C@H](C)[C@@H](Nc2cccc(C)n2)c2cc(F)ccc2N1C(C)=O` (single isomer, unassigned) [Example 146a] stands 100 nM; under `CC[C@@H]1[C@@H](C)[C@H](Nc2cccc(C)n2)c2cc(F)ccc2N1C(C)=O` (single isomer, unassigned) [Example 146b], 1000 to 100000 nM.
Regarding `CC[C@H]1[C@H](C)[C@@H](Nc2ccc(C#N)cc2)c2cc(F)ccc2N1C(C)=O` (single isomer, unassigned) [Example 147a], the IC50 was 1000 to 100000 nM.
Under `CC[C@@H]1[C@@H](C)[C@H](Nc2ccc(C#N)cc2)c2cc(F)ccc2N1C(C)=O` (single isomer, unassigned) [Example 147b] stands 100 nM; under `CC(=O)N1c2ccc(C3=CCNCC3)cc2[C@H](Nc2cccc(C)n2)[C@@H](C)[C@@H]1C1CC1` (single isomer, unassigned) [Example 189a], 100 nM.
Turning to `CC(=O)N1c2ccc(C3=CCNCC3)cc2[C@@H](Nc2cccc(C)n2)[C@H](C)[C@H]1C1CC1` (single isomer, unassigned) [Example 189b], the IC50 was 1000 to 100000 nM.
As for `CNC(=O)c1ccc2c(c1)[C@H](Nc1cccc(C)n1)[C@@H](C)[C@H](C1CC1)N2C(C)=O` (single isomer, unassigned) [Example 239a], the figure is 100 nM.
As for `CNC(=O)c1ccc2c(c1)[C@@H](Nc1cccc(C)n1)[C@H](C)[C@@H](C1CC1)N2C(C)=O` (single isomer, unassigned) [Example 239b], the figure is 1000 to 100000 nM.
Under `CC(=O)N1c2ccc(C(N)=O)cc2[C@@H](Nc2nccc(C)n2)[C@H](C)[C@H]1C1CC1` (single isomer, unassigned) [Example 397] stands 1000 to 100000 nM.
On to `CNC(=O)c1ccc(N[C@@H]2c3cc(C4=CCOCC4)ccc3N(C(C)=O)[C@H](C3CC3)[C@H]2C)cc1` (single isomer, unassigned) [Example 551a], for which the IC50 is 1000 to 100000 nM.
As for `CC(=O)N1c2ccc(N3CCOCC3)cc2[C@H](Nc2ccccc2)[C@@H](C)[C@@H]1C1CC1` [Example 91a, 1-((2S,3R,4R)-2-cyclopropyyl-3-methyl-6-morpholino-4-(phenylamino)-3,4-dihydroquinolin-1(2H)-yl)ethanone], the figure is 100 nM; as for `CC(=O)N1c2ccc(N3CCOCC3)cc2[C@H](Nc2ccc(C#N)cc2)[C@@H](C)[C@@H]1C` [Example 197, 4-(((2S,3R,4R)-1-acetyl-2,3-dimethyl-6-morpholino-1,2,3,4-tetrahydroquinolin-4-yl)amino)benzonitrile], 100 nM.
`CC(=O)N1c2ccc(N3CCNCC3)cc2[C@H](Nc2ccc(C#N)cc2)[C@@H](C)[C@@H]1C` [Example 214, 4-(((2S,3R,4R)-1-acetyl-2,3-dimethyl-6-(piperazin-1-yl)-1,2,3,4-tetrahydroquinolin-4-yl)amino)benzonitrile]: the IC50 is 100 nM.
As for `CCNC(=O)c1ccc2c(c1)[C@H](Nc1cccc(C)n1)[C@@H](C)[C@H](C1CC1)N2C(C)=O` [Example 248, (2S,3R,4R)-1-acetyl-2-cyclopropyyl-N-ethyl-3-methyl-4-((6-methylpyridin-2-yl)amino)-1,2,3,4-tetrahydroquinoline-6-carboxamide], the figure is 100 nM.
For the molecule `COCCNC(=O)c1ccc2c(c1)[C@H](Nc1cccc(C)n1)[C@@H](C)[C@H](C1CC1)N2C(C)=O` [Example 256, (2S,3R,4R)-1-acetyl-2-cyclopropyl-N-(2-methoxyethyl)-3-methyl-4-((6-methylpyridin-2-yl)amino)-1,2,3,4-tetrahydroquinoline-6-carboxamide], the IC50 was 100 nM.
On to `CC(=O)N1c2ccc(C(=O)N[C@@H]3CCOC3)cc2[C@H](Nc2cccc(C)n2)[C@@H](C)[C@@H]1C1CC1` [Example 261, (2S,3R,4R)-1-acetyl-2-cyclopropyl-3-methyl-4-((6-methylpyridin-2-yl)amino)-N—((R)-tetrahydrofuran-3-yl)-1,2,3,4-tetrahydroquinoline-6-carboxamide], for which the IC50 is 100 nM.
As for `CC(=O)N1c2ccc(C(=O)NCCS(C)(=O)=O)cc2[C@H](Nc2cccc(C)n2)[C@@H](C)[C@@H]1C1CC1` [Example 262, (2S,3R,4R)-1-acetyl-2-cyclopropyl-3-methyl-4-((6-methylpyridin-2-yl)amino)-N-(2-(methylsulfonyl)ethyl)-1,2,3,4-tetrahydroquinoline-6-carboxamide], the figure is 100 nM; as for `CC(=O)N1c2ccc(C(N)=O)cc2[C@H](Nc2nccc(C)n2)[C@@H](C)[C@@H]1C1CC1` [Example 291, (2S,3R,4R)-1-acetyl-2-cyclopropyl-3-methyl-4-((4-methylpyrimidin-2-yl)amino)-1,2,3,4-tetrahydroquinoline-6-carboxamide], 100 nM.
